Reference: PMC11123921, “Synthesis and Evaluation of 5-(Heteroarylmethylene)hydantoins as Glycogen Synthase Kinase-3β Inhibitors” (Pharmaceuticals, 2024)
Where a name gives a salt, the structure may show the parent alone.

Target: T1, Staphylococcus aureus pyruvate carboxylase (SaPC) (Staphylococcus aureus, UniProt A0A0H3JRU9)
T1 sequence (A0A0H3JRU9 1-1150): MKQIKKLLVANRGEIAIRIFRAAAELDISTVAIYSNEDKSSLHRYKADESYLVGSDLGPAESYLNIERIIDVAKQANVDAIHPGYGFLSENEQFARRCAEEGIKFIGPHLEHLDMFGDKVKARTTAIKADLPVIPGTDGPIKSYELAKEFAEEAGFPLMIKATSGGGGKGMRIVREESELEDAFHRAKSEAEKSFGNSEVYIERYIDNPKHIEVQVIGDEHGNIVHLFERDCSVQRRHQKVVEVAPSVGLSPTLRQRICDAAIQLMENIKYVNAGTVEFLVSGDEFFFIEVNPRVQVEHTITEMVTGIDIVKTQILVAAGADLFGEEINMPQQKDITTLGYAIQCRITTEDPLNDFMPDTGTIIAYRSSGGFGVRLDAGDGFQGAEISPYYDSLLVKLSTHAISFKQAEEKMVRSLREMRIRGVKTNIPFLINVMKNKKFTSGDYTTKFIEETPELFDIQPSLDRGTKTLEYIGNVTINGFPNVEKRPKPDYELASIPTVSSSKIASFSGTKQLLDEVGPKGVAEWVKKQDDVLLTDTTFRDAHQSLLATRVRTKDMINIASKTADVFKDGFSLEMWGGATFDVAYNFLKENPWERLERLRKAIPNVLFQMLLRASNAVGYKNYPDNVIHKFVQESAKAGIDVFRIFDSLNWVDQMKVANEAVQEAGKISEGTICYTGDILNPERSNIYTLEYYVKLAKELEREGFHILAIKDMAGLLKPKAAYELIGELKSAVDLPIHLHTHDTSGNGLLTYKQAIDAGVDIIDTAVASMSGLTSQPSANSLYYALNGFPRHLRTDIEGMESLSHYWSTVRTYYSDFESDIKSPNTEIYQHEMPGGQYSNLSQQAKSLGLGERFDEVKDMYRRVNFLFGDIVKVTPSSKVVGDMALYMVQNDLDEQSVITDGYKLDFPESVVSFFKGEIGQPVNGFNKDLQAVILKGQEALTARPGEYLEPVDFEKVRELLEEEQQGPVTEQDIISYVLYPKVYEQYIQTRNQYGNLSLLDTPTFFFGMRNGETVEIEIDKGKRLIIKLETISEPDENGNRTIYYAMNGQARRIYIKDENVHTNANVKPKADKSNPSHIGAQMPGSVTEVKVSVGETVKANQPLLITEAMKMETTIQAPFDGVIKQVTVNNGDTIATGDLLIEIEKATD
Assay: biochemical
Conditions: isolated SaPC

Row | IC50 [µM] | Compound
1 | > 1000 | Cc1cccc(/C=C2\NC(=O)NC2=O)n1 [Compound 23, (Z)-5-[(6′-Methyl-2-pyridinyl)methylene]-2,4-imidazolidinedione-HCl]
2 | > 1000 | Cc1ccnc(/C=C2\NC(=O)NC2=O)c1 [Compound 21, (Z)-5-[(4′-Methyl-2-pyridinyl)methylene]-2,4-imidazolidinedione-HCl]

Test system: not given
Assay: not given
Conditions: not given

Row | Compound | melting point [°C]
3 | O=C1NC(=O)/C(=C/c2ccccn2)N1 [Compound 17, (Z)-5-[(2′-Pyridinyl)methylene]-2,4-imidazolidinedione] | 231 to 233
4 | O=C1NC(=O)/C(=C/c2ccc3ncccc3c2)N1 [Compound 28, (Z)-5-[(6′-Quinolinyl)methylene]-2,4-imidazolidinedione] | > 250

Now from value to compound:

Row | melting point [°C] | Compound
5 | > 255 | O=C1NC(=O)/C(=C/c2ccc(Br)cn2)N1 [Compound 26, (Z)-5-[(5′-Bromo-2-pyridinyl)methylene]-2,4-imidazolidinedione]
6 | 245 to 248 | Cc1cccnc1/C=C1\NC(=O)NC1=O [Compound 20, (Z)-5-[(3′-Methyl-2-pyridinyl)methylene]-2,4-imidazolidinedione]

Target: human matrix metalloproteinase-12 (Homo sapiens, UniProt P39900)
Sequence (P39900 106-470): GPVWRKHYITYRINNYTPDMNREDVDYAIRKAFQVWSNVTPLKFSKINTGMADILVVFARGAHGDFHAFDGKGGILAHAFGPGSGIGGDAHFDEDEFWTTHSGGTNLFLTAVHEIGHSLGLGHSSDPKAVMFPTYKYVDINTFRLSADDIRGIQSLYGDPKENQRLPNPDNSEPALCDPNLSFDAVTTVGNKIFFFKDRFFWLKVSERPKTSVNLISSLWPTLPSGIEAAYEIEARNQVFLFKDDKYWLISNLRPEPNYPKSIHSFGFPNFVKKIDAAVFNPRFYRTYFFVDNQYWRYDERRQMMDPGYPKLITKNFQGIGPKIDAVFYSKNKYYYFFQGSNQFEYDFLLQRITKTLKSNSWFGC
Assay: Matrix metalloproteinase-12 fluorogenic substrate assay
Format: biochemical
Conditions: 25 μM compound; read-out: MMP-12 % Activity @ 25 μM
Experimental: (§1) 5-(Heteroarylmethylene)hydantoins were evaluated as inhibitors for MMP-12 at fixed concentrations of 200 and 25 μM (Table 1). At 200 μM of 20–24, the activity of MMP-12 was ≤50% the activity of positive control; for compounds 21, 24, and 25 at 25 μM, the activity of MMP12 was 69–74% while the activity for the others was >80%. […] A select subset of the 5-(heteroarylmethylene)hydantoins were evaluated as inhibitors of human carbonic anhydrase II (hCAII) at 200 μM (Table 1). […] Finally, this same subset of 5-(heteroarylmethylene)hydantoins were evaluated as inhibitors of isolated S. aureus pyruvate carboxylase (SaPC) in a fixed-time assay (Table 1). No inhibitory activity was observed up to 1000 μM.
Assays for human matrix metalloproteinase-12 activity were performed in a 96-well plate format for a total reaction volume of 100 μL, in an assay modified from Day and Cohen. All assay reagents were prepared and maintained at 22 °C until warmed to 37 °C. The omniMMP fluorogenic substrate and MMP-12 enzyme were prepared in assay buffer (50 mM HEPES, 10 mM CaCl2, 0.05% Brij-35, pH of 7.52), and small molecule effectors were prepared as a solution in 50% DMSO, 50% assay buffer. The final concentration of enzyme in the 100 μL enzymatic reaction was 0.0083 U/μL. A known inhibitor, N-[(4’-bromo [1,1’-biphenyl]-4-yl)sulfonyl]-L-valine (PD166793), was included where noted at a final concentration of 100 μM. OmniMMP fluorogenic substrate was added to the 100 μL enzymatic reaction at a final concentration of 4 μM. For all experiments, 30 μL of enzyme stock solution was added to each well in a 96-well, flat-bottom, black polystyrene microplate (SantaCruz Biotechnology, Dallas, TX, USA), followed by the addition of 10 μL of the effectors (50% assay buffer, 50% DMSO for the uninhibited reaction, PD166793 for the inhibition). The 96-well plate was then incubated in a plate reader at 37 °C for 30 min; concurrently, the substrate solution was also warmed to 37 °C for 30 min. The enzymatic reaction was initiated by adding 60 μL of the omniMMP fluorogenic substrate solution. The change in fluorescence was then monitored for 30 min with excitation and emission wavelengths at 320 and 400 nm, respectively, every 46 s for a total of 40 measurements.

Row | Compound | activity at 25 µM [%]
7 | O=C1NC(=O)/C(=C/c2ccc3ncccc3c2)N1 [Compound 28, (Z)-5-[(6′-Quinolinyl)methylene]-2,4-imidazolidinedione] | 81.8
8 | Cc1ccnc(/C=C2\NC(=O)NC2=O)c1 [Compound 21, (Z)-5-[(4′-Methyl-2-pyridinyl)methylene]-2,4-imidazolidinedione-HCl] | 71.6

Next, values leading:

Row | activity at 25 µM [%] | Compound
9 | 98.6 | O=C1NC(=O)/C(=C/c2ccc(Br)cn2)N1 [Compound 26, (Z)-5-[(5′-Bromo-2-pyridinyl)methylene]-2,4-imidazolidinedione]
10 | 108 | Cc1cccnc1/C=C1\NC(=O)NC1=O [Compound 20, (Z)-5-[(3′-Methyl-2-pyridinyl)methylene]-2,4-imidazolidinedione]
11 | 86.4 | Cc1cccc(/C=C2\NC(=O)NC2=O)n1 [Compound 23, (Z)-5-[(6′-Methyl-2-pyridinyl)methylene]-2,4-imidazolidinedione-HCl]

Same assay, conditions: 200 μM compound; read-out: MMP-12 % Activity @ 200 μM

Row | Compound | activity at 200 µM [%]
12 | O=C1NC(=O)/C(=C/c2ccc3ncccc3c2)N1 [Compound 28, (Z)-5-[(6′-Quinolinyl)methylene]-2,4-imidazolidinedione] | 61.6
13 | Cc1ccnc(/C=C2\NC(=O)NC2=O)c1 [Compound 21, (Z)-5-[(4′-Methyl-2-pyridinyl)methylene]-2,4-imidazolidinedione-HCl] | 28.5

Now from value to compound:

Row | activity at 200 µM [%] | Compound
14 | 72.9 | O=C1NC(=O)/C(=C/c2ccc(Br)cn2)N1 [Compound 26, (Z)-5-[(5′-Bromo-2-pyridinyl)methylene]-2,4-imidazolidinedione]
15 | 39.6 | Cc1cccnc1/C=C1\NC(=O)NC1=O [Compound 20, (Z)-5-[(3′-Methyl-2-pyridinyl)methylene]-2,4-imidazolidinedione]
16 | 46.5 | Cc1cccc(/C=C2\NC(=O)NC2=O)n1 [Compound 23, (Z)-5-[(6′-Methyl-2-pyridinyl)methylene]-2,4-imidazolidinedione-HCl]

Target: human carbonic anhydrase II (hCAII) (Homo sapiens, UniProt P00918)
Assay: Human carbonic anhydrase II p-nitrophenyl acetate assay
Format: biochemical
Conditions: 200 μM compound
Experimental: as §1
Assays for human carbonic anhydrase II activity were performed in a 96-well plate format for a total reaction volume of 100 μL, in an assay modified from Day and Cohen. All assay reagents and solutions were prepared separately and maintained at 22 °C until warmed to 30 °C. All substrates, effectors, and enzyme were freshly dissolved and diluted in assay buffer containing 50 mM Tris (pH 8.0). The final concentration of the human carbonic anhydrase II enzyme was 200 nM. Where noted, acetazolamide was included at a final concentration of 10 μM. The substrate, p-nitrophenyl acetate, was added at a final concentration of 504 μM. For all experiments, 20 μL of enzyme stock solution was added to each well in a 96-well, flat-bottom, polystyrene microplate (Santa Cruz Biotechnology, Dallas, TX, USA), followed by the addition of 10 μL of the effectors (assay buffer for the uninhibited reaction, acetazolamide for the inhibition). The 96-well plate was then incubated in a plate reader at 30 °C for 10 min; concurrently, the substrate solution was also warmed to 30 °C for 10 min. The enzymatic reaction was initiated by adding 70 μL of the substrate solution (p-nitrophenyl acetate). The absorbance values were then measured at 405 nm every 30 s over a period of 20 min for a total of 40 measurements.

Row | activity at 200 µM [%] | Compound
17 | 88.9 ± 12.3 | Cc1cccc(/C=C2\NC(=O)NC2=O)n1 [Compound 23, (Z)-5-[(6′-Methyl-2-pyridinyl)methylene]-2,4-imidazolidinedione-HCl]
18 | 94.8 ± 12.8 | Cc1ccnc(/C=C2\NC(=O)NC2=O)c1 [Compound 21, (Z)-5-[(4′-Methyl-2-pyridinyl)methylene]-2,4-imidazolidinedione-HCl]

Target: T2, GSK-3β (Homo sapiens, UniProt P49841)
T2 sequence (P49841 whole entry): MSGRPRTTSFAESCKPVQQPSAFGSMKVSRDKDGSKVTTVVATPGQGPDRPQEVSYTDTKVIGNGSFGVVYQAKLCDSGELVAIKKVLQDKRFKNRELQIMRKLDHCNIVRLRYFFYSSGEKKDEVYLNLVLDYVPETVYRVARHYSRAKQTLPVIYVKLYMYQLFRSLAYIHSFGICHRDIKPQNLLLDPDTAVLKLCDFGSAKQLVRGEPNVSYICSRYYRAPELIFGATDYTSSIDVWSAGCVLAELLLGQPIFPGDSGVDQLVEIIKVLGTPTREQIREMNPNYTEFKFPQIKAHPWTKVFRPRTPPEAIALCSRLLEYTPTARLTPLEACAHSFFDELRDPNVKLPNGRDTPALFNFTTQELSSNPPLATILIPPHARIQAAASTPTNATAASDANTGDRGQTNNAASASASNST
Assay: not given
Conditions: cited from earlier work

Row | Compound | IC50 [µM]
19 | indirubin-3-monoxime | 0.022

Target: T2, GSK-3β
Assay: GSK-3β kinase HotSpot assay (Reaction Biology)
Format: biochemical
Conditions: 25 μM compound, 10 μM ATP, duplicate, average; remaining kinase activity vs vehicle

Row | Compound | activity at 25 µM [%]
20 | O=C1NC(=O)/C(=C/c2ccccn2)N1 [Compound 17, (Z)-5-[(2′-Pyridinyl)methylene]-2,4-imidazolidinedione] | 55.4
21 | O=C1NC(=O)/C(=C/c2ccc3ncccc3c2)N1 [Compound 28, (Z)-5-[(6′-Quinolinyl)methylene]-2,4-imidazolidinedione] | 22.5
22 | Cc1ccnc(/C=C2\NC(=O)NC2=O)c1 [Compound 21, (Z)-5-[(4′-Methyl-2-pyridinyl)methylene]-2,4-imidazolidinedione-HCl] | 42

Now from value to compound:

Row | activity at 25 µM [%] | Compound
23 | 35.3 | O=C1NC(=O)/C(=C/c2ccc(Br)cn2)N1 [Compound 26, (Z)-5-[(5′-Bromo-2-pyridinyl)methylene]-2,4-imidazolidinedione]
24 | 31.6 | Cc1cccnc1/C=C1\NC(=O)NC1=O [Compound 20, (Z)-5-[(3′-Methyl-2-pyridinyl)methylene]-2,4-imidazolidinedione]
25 | 28.4 | Cc1cccc(/C=C2\NC(=O)NC2=O)n1 [Compound 23, (Z)-5-[(6′-Methyl-2-pyridinyl)methylene]-2,4-imidazolidinedione-HCl]

Same assay, conditions: 10-point, triplicate, 10 μM ATP, average ± SD

Row | IC50 [µM] | Compound
26 | 7.82 ± 0.12 | O=C1NC(=O)/C(=C/c2ccc3ncccc3c2)N1 [Compound 28, (Z)-5-[(6′-Quinolinyl)methylene]-2,4-imidazolidinedione]
27 | 8.34 ± 0.27 | Cc1cccc(/C=C2\NC(=O)NC2=O)n1 [Compound 23, (Z)-5-[(6′-Methyl-2-pyridinyl)methylene]-2,4-imidazolidinedione-HCl]

Test system: cancer migration
Assay: not given
Parameters: method as in PMID 20869139
Conditions: cited from earlier work

Row | Compound | activity as cancer migration inhibitors
28 | O=C1NC(=O)/C(=C/c2cccc(-c3cccs3)n2)N1 [Compound 16] | notable activity
